From US8436006B2, “2-amino-quinazoline derivatives useful as inhibitors of β-secretase (BACE)” (Jansssen Pharmaceutica N.V., priority 2004, dated 2013)

Legend:
Format in all cases: biochemical
β-secretase (BACE) [1] = biological target: T1, β-secretase (BACE) (Homo sapiens, UniProt P56817); assay: BACE Assay-1 (Example 158), MCA-substrate fluorescence; settings: procedure of Example 158
T1 construct: purchased Panvera
Procedure: The following standards are reagents were used in this assay: Sodium Citrate trisodium salt dihydrate (Sigma), Citric Acid monohydrate (Merck), PEG8000 (Sigma), MCA-substrate (Bachem), β-secretase (BACE) (Panvera), 96-well plate zwart (Costar (Elscolab)), StatVal (Bachem).
The following standard assay buffer solution was prepared and used in this assay: 0.05 M, pH 5.0 mixture of sodium citrate trisodium salt dihydrate (9.56 g), citric acid monohydrate (3.68 g) and PEG8000 (0.50 g).
The MCA-substrate stock solution was prepared by mixing 10 mg MCA-substrate with 5 mL DMSO for a final solution concentration of 2.0 mg/mL. The substrate work solution was prepared by mixing 0.1 mL substrate in 1.90 mL assay buffer for a final concentration of 0.05 mM. The β-secretase (BACE) work solution was prepared by mixing 8 μL BACE in 2 mL assay buffer for a final concentration of 10 μg/mL.
The screen procedure for this assay was as follows. 60 μL of assay buffer was pippeted into each well of a 96-well plate. To each well was then pipetted 1 μL of test compound at the selected concentration. To each well was then added 20 μL of the β-secretase work solution and 20 μL of the MCA-substrate stock solution.
The procedure for the blank was as follows. 80 μL of assay buffer was pipetted into each well to be used as a blank control. To each well was then added 1 μL of DMSO and 20 μL of MCA-substrate solution in each well.
The procedure for the positive control was as follows. 60 μL of assay buffer was pipetted into each well to be used as a positive control. To each well was then added 1 μL of DMSO, 20 μL of BACE work solution and 20 μL of MCA-substrate stock solution.
For test compounds, measured at multiple concentrations, the measured T0 and T60 values were used to calculate an IC50 value using Graphpad Software (or PIR).

β-secretase (BACE) [2] = biological target: T1, β-secretase (BACE); assay: BACE FS1% Inhibition Assay (Example 160); settings: for inhibition at 3 µM / inhibition at 10 µM / inhibition at 0.3 µM / inhibition at 1 µM: read-out: % Inhibition (FS); for inhibition at 10 µM: 10 μM test compound
Procedure: The following reagents were used in this assay: sodium acetate, PEB8000 (Sigma), DMSO, HEPES, FS1 substrate [[…]], β-secretase (BACE) (Panvera), and 96-well plate (HE microplate, Molecular Devices). […] The FS1-substrate stock solution was prepared in DMSO as a 10 mg/mL solution. The FS1-substrate working solution was prepared by diluting the 10 mg/mL stock solution with substrate assay buffer to a final concentration of 300 μg/mL. The β-secretase (BACE) working solution was prepared by diluting a 0.83 mg/mL BACE stock solution with enzyme assay buffer to a final concentration of 4 μg/mL. Test compounds were dissolved in DMSO to 10 mM. […] The screening procedure for this assay was as follows: 15 μL of BACE working solution was pipetted into each well of a 96-well plate. To each well was the pipetted 2 μL of test compound at the selected concentration. Test compound and BACE were then mixed with a pipettor and incubated for 20 min at room temperature. To each well was then added 10 μL of the FS1 substrate working solution. The plates were then incubated for 1 hour at room temperature. […] The procedure for the blank was as follows. 15 μL of assay buffer was pipetted into each well to be used as a blank control. To each well was then added 2 μL of vehicle and 10 μL of FS1-substrate working solution. The plates were then incubated for 1 hour at room temperature. […] The procedure for the positive control was as follows: 15 μL of BACE working solution was pipetted into each well to be used as a positive control. To each well was then pipetted 2 μL of vehicle. Vehicle and BACE were then mixed with a pipettor and incubated for 20 min at room temperature. To each well was then added 10 μL of the FS1 substrate working solution. The plates were then incubated for 1 hour at room temperature. […] For test compounds, % inhibition was determined at each concentration as follows: [formula]

β-secretase (BACE) [3] = biological target: T1, β-secretase (BACE); assay: BACE Assay-2 (Example 159), FS1 substrate, kinetic fluorescence; settings: procedure of Example 159
Procedure: (§1) The FS1-substrate stock solution was prepared in DMSO as a 10 mg/mL solution. The FS1-substrate working solution was prepared by diluting the 10 mg/mL stock solution with substrate assay buffer to a final concentration of 300 μg/mL. The β-secretase (BACE) working solution was prepared by diluting a 0.83 mg/mL BACE stock solution with enzyme assay buffer to a final concentration of 4 μg/mL.
Test compounds were dissolved in DMSO at 10 mM.
(§2) The procedure for this assay was as follows: 15 μL of BACE working solution was pipetted into each well of a 96-well plate. To each well was then pipetted 2 μL of test compound at the selected concentration. Test compound and BACE were then mixed with a pipettor and incubated for 20 min at room temperature. To each well was then added 10 μL of the FS1 substrate working solution.
(§3) The procedure for the positive control was as follows: 15 μL of BACE working solution was pipetted into each well to be used as a positive control. To each well was then pipetted 2 μL of vehicle. Vehicle and BACE were then mixed with a pipettor and incubated for 20 min at room temperature. To each well was then added 10 μL of the FS1 substrate working solution.
For test compounds, measured at multiple concentrations, the measured T0 and T60 values were used to calculate an IC50 value using Graphpad Software (or PIR). For test compounds, Ki inhibition was determined as follows: For each compound concentration and positive control, rate of cleavage of substrate (Vi, where i=compound concentration in μM) was determined as Δ Fluorescence/Δ time (min). Cleavage rates (Vi) were plotted as a function of inhibitor concentration in μM [I]. The Ki was then determined by fitting the following equation to the graph of [I] vs Vi Y=aVmax/(50+24*(1+X/Ki)),

β-secretase (BACE) [4] = biological target: T1, β-secretase (BACE); assay: BACE % Inhibition Assay (Example 161), (Aedens)-[…]-(Dabcyl K-amide) substrate; settings: % error ±10%; for inhibition at 1 µM: 1 μM test compound
Procedure: The following reagents were used in this assay: sodium acetate, PEG8000 (Sigma), DMSO, HEPES, (Aedens)-[…]-(Dabcyl K-amide) substrate, β-secretase (BACE) (Panvera), and 96-well plate (HE microplate, Molecular Devices).
as §1, with “substrate” for “FS1-substrate”
Test compounds were dissolved in DMSO to 10 mM.
as §2, with “The screening” for “The”, “the” for “the FS1”, “solution. The plates were then incubated for 1 hour at room temperature.” for “solution.”
The procedure for the blank was as follows. 15 μL of assay buffer was pipetted into each well to be used as a blank control. To each well was then added 2 μL of vehicle and 10 μL of substrate working solution. The plates were then incubated for 1 hour at room temperature.
as §3, with “15 μl” for “15 μL”, “the” for “the FS1”, “solution. The plates were then incubated for 1 hour at room temperature.” for “solution.”
For test compounds, % inhibition was determined at each concentration as follows: % Inhibition=[[…]][FI(positive control)−FI(negative control)]

T1 sequence (P56817 46-501): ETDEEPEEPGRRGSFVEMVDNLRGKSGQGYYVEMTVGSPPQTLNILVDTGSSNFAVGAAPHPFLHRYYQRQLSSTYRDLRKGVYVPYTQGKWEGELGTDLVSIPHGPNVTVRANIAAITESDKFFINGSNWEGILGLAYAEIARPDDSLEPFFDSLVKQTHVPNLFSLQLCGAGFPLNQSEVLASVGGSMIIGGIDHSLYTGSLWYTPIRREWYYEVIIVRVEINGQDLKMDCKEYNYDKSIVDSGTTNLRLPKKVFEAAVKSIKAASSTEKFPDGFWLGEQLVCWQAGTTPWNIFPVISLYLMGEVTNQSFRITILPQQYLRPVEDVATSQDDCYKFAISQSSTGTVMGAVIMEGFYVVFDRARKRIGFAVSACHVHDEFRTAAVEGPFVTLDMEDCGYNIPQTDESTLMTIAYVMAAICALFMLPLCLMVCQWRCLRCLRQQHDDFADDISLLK

Compound | IC50 (β-secretase (BACE) [1]) [µM] | inhibition at 3 µM (β-secretase (BACE) [2]; 3 μM test compound) [%] | Ki (β-secretase (BACE) [3]) [µM] | inhibition at 0.3 µM (β-secretase (BACE) [2]; 0.3 μM test compound) [%] | inhibition at 1 µM (β-secretase (BACE) [2]; 1 μM test compound) [%] | other results
CCCC(CCCC(=O)NC1CCCCC1)N1Cc2cc(Oc3ccccc3)ccc2N=C1N (centres unmarked) [Compound 91] | 0.6 | 68 | 0.32 |  |  | inhibition at 10 µM (β-secretase (BACE) [2]): 117%
NC1=Nc2ccc(Oc3ccccc3)cc2CN1Cc1cccc(C(=O)N(C2CCCCC2)C2CCCCC2)c1 [Compound 98] |  |  |  |  |  | % Inhibition (β-secretase (BACE) [4]; 3 μM test compound): 76%; % Inhibition (β-secretase (BACE) [4]; 10 μM test compound): 99%; % Inhibition (FS) (β-secretase (BACE) [2]; 0.3 μM test compound): 49%; % Inhibition (FS) (β-secretase (BACE) [2]; 1 μM test compound): 93%; % Inhibition (FS) (β-secretase (BACE) [2]; 3 μM test compound): 114%
CCCC(CCC(=O)NC1CCCCCC1)N1Cc2cc(Oc3ccccc3)ccc2N=C1N (centres unmarked) [Compound 128] | 0.072 | 97 | 0.13 |  |  | inhibition at 10 µM (β-secretase (BACE) [2]): 108%
CCCCCC(CCC(=O)NC1CCCCCC1)N1Cc2cc(Oc3ccccc3)ccc2N=C1N (centres unmarked) [Compound 150] |  | 90 | 0.46 | < 30 | < 30 | 
CN(C(=O)CC(C1CCCCC1)N1Cc2cc(Oc3ccccc3)ccc2N=C1N)C1CCCCC1 (centres unmarked) [Compound 199] |  | 82 | 0.51 | < 30 | < 30 | 
CCCN1Cc2cc(Oc3cccc(NS(=O)(=O)c4cccc5nsnc45)c3)ccc2N=C1N [Compound 247] | 1.7 |  |  |  |  | 
CC(C)(C)OC(=O)NCC(C1CCCCC1)N1Cc2cc(Oc3ccccc3)ccc2N=C1N (centres unmarked) [Compound 257] | 0.083 |  | 0.056 | 67 | 105 | 
NC1=Nc2ccc(Oc3ccccc3)cc2CN1C(CNC(=O)C12CC3CC(CC(C3)C1)C2)C1CCCCC1 (centres unmarked) [Compound 312] | 0.039 | 115 | 0.039 | 74 | 103 | 
CC(C)(C)C(=O)NCC(C1CCCCC1)N1Cc2cc(Oc3ccccc3)ccc2N=C1N (centres unmarked) [Compound 317] | 0.39 |  | 0.18 |  |  | inhibition at 0.3 µM (β-secretase (BACE) [4]; 0.3 μM test compound): < 30%; inhibition at 1 µM (β-secretase (BACE) [4]): 66%; inhibition at 3 µM (β-secretase (BACE) [4]; 3 μM test compound): 107%
NC1=Nc2ccc(Oc3ccccc3)cc2CN1C(CNC(=O)C1(c2ccc(Cl)cc2)CCCC1)C1CCCCC1 (centres unmarked) [Compound 390] |  |  | 0.57 |  |  | inhibition at 0.3 µM (β-secretase (BACE) [4]; 0.3 μM test compound): < 30%; inhibition at 1 µM (β-secretase (BACE) [4]): 50%; inhibition at 3 µM (β-secretase (BACE) [4]; 3 μM test compound): 102%
NC1=Nc2ccc(Oc3ccccc3)cc2CN1C(CCNC(=O)C1CCCC1)C1CCCCC1 (centres unmarked) [Compound 392] |  |  |  |  |  | % Inhibition (β-secretase (BACE) [4]; 0.3 μM test compound): 75%; % Inhibition (β-secretase (BACE) [4]; 3 μM test compound): 120%
CCCC(CNC(=O)C12CC3CC(CC(C3)C1)C2)N1Cc2cc(Oc3ccccc3)ccc2N=C1N (centres unmarked) [Compound 602] |  | 121 | 0.056 | 78 | 113 | 
CCC[C@H](CNC(=O)CCC(C)C)N1Cc2cc(Oc3ccccc3)ccc2N=C1N [Compound 603] |  | 122 | 0.033 | 101 | 114 | 
